Measured values as given in article PMC5198778 (MedChemComm, 2016).

What was measured:
CARM1 = biological target: T1, CARM1 (Homo sapiens, UniProt Q86X55); assay: Mechanism of action; assay type: biochemical; conditions: IC50 against CARM1 with increasing peptide substrate or SAM concentrations
T1 sequence (Q86X55 1-608): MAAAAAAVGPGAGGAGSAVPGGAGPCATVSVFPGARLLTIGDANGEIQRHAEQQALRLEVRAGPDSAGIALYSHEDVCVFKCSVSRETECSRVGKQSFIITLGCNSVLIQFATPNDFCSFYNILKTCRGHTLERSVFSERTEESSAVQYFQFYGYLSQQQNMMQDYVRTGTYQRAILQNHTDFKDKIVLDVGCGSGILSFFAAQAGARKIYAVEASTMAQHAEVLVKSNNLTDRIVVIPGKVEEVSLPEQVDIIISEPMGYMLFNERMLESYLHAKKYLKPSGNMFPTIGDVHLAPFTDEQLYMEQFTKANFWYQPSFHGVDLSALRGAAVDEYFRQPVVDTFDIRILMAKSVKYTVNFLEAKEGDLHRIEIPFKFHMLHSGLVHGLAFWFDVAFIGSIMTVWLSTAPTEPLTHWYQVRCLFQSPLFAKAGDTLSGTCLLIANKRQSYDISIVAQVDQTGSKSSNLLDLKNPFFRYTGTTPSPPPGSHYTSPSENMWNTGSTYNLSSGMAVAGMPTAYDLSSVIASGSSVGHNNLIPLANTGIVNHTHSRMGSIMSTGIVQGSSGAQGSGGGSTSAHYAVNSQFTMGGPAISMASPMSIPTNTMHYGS

PRMT8 = PRMT8 (Homo sapiens, UniProt Q9NR22); assay: PRMT8 biochemical inhibition assay
other PRMTs = assay: Activity against other PRMTs; assay type: biochemical; conditions: PRMTs other than CARM1, PRMT6 and PRMT8
all type I PRMTs = conditions: cited from earlier work
[1] = system: type II and type III PRMTs as well as other methyltransferases; conditions: cited from earlier work

Sequence of PRMT8 (Q9NR22 whole entry, species assumed): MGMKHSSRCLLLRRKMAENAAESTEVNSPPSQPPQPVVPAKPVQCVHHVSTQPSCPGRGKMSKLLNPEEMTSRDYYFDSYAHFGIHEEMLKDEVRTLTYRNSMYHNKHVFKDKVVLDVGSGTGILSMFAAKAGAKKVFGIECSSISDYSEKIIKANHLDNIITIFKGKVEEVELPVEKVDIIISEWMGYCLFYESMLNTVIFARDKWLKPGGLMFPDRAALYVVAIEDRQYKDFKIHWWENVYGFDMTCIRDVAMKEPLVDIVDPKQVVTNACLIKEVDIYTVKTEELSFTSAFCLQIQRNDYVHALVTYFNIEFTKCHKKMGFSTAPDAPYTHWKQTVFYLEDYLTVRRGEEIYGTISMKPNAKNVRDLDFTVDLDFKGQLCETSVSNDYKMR

CNCCN1CCC(NCc2cccc(Br)c2)CC1 [Compound 9]
mechanism of action versus cofactor SAM and peptide substrate (CARM1): noncompetitive

CNCCN1CC(OCc2cccc(OC(F)(F)F)c2)C1 [Compound 6]
IC50 (PRMT8): 1200 nM
activity against other PRMTs (other PRMTs): inactive

CC(C)Oc1ccc(-c2c[nH]cc2CN(C)CCN)cc1 [MS023]
activity against all type I PRMTs (all type I PRMTs): potent
activity against type II and type III PRMTs and other methyltransferases [1]: inactive
